From article PMC10418395, “Tetracyclic 1,4-Naphthoquinone Thioglucoside Conjugate U-556 Blocks the Purinergic P2X7 Receptor in Macrophages and Exhibits Anti-Inflammatory Activity In Vivo” (International Journal of Molecular Sciences, 2023)

How the values were obtained:
P2X7 receptor (mP2X7R) [1] = biological target: T1, P2X7 receptor (mP2X7R) (Mus musculus, UniProt Q9Z1M0); assay: ATP/BzATP-induced YO-PRO-1 uptake and Ca2+ influx in RAW […] cells; type: cell-based
T1 construct: gene P2rx7
T1 sequence (Q9Z1M0 1-595): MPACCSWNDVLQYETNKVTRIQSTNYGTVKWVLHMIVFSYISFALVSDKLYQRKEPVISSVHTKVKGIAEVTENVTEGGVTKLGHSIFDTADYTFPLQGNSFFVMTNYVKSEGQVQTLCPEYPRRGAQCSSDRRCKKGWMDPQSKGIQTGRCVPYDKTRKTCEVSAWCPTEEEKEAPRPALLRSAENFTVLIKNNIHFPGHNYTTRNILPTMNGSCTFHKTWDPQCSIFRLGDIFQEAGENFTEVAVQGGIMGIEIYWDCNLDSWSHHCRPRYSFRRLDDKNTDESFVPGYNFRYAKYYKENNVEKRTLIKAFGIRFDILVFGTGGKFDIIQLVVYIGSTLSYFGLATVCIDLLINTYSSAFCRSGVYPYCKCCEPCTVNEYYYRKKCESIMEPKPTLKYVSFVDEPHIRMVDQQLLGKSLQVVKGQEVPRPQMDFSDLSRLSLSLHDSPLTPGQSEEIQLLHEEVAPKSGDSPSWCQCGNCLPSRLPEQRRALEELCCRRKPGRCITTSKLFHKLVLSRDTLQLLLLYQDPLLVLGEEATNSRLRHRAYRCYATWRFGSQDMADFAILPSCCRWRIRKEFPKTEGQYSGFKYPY

P2X7 receptor (hP2X7) = biological target: T2, P2X7 receptor (hP2X7) (Homo sapiens, UniProt Q99572); assay: SPR (Biacore […], CM5 chip, Langmuir […]); type: binding
T2 construct: gene P2RX7
T2 sequence (Q99572 47-334): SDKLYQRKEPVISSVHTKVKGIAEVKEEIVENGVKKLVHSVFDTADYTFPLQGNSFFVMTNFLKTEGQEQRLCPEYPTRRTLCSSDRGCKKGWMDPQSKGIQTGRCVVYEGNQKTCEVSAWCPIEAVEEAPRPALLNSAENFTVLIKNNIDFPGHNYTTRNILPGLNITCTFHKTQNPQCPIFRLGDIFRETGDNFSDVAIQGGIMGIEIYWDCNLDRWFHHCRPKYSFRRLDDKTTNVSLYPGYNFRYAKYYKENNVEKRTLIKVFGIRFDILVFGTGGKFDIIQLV

P2X7 receptor (mP2X7R) [2] = biological target: T1, P2X7 receptor (mP2X7R); assay: BzATP/ATP-induced YO-PRO-1 uptake and Ca2+ influx in RAW […] cells; type: cell-based

**Q.** Which inhibition at 10 µM (P2X7 receptor (mP2X7R) [1]) does the source give for `Clc1cccc(-c2nnnn2Cc2cccnc2)c1Cl` [A438079] here?
**A.** 48.3%

**Q.** How did the Kd (P2X7 receptor (hP2X7)) turn out when `Cc1c(C)c(O)c2c(c1O)C(=O)C1=C(S[C@@H]3O[C@H](CO)[C@@H](O)[C@H](O)[C@H]3O1)C2=O` [compound 4] was run?
**A.** 13 µM

**Q.** What about the inhibition at 0.1 µM (P2X7 receptor (mP2X7R) [2]) of the same compound?
**A.** 52.7%
